Test results from patent US9422254B2, “Methoxyacrylate-based fungicide and methods for preparing and using the same” (priority 2008, dated 2016).

Legend:
Sphaerotheca uliginea = test: Fungicidal activity on potted cucumber, powdery mildew; assay type: in vivo
Description: 1. Fungicidal Activity Assay on Potted Plants at Room Temperature
Take cucumber downy mildew and powdery mildew as examples, the assay were carried out as follows:
2) Sphaerotheca uliginea: Pathogen of Cucumber Powdery Mildew
A cucumber seedling having uniform growth status and in the true leaf stage was collected, sprayed with the compound of Formula (I), and dried in the shade for 24 hrs. Fresh spore was collected from cucumber leaves infected by Sphaerotheca uliginea, filtered with a double-layer gauze, and prepared into a suspension (1.0×10^5 cells/mL). The suspension was sprayed to the dried cucumber seedling. Subsequently, the inoculated seedling was dried naturally and cultured under light in a thermostatic chamber (21-23° C.). 7-8 days later, compared with the blank control, the disease of the cucumber seedlings was graded. Based on the resultant disease index, the efficacy was calculated.
The grading standard follows “Guidelines on efficacy evaluation of pesticides”, and the efficacy is calculated on the basis of the disease index.

Sclerotinia sclerotirum = test: microbe, parasite or virus in culture; assay type: cell-based; conditions: read-out: Inhibition rate (%)
[1] = system: Botryosphaeria berengeriana; test: microbe, parasite or virus in culture; assay type: cell-based; conditions: read-out: Inhibition rate (%)
[2] = system: Rhizoctonia solani (wheat sheath blight); test: microbe, parasite or virus in culture; assay type: cell-based; conditions: read-out: Inhibition rate (%)
Bipolaris sorokiniana = test: microbe, parasite or virus in culture; assay type: cell-based; conditions: read-out: Inhibition rate (%)
Diaporthe medusae = test: microbe, parasite or virus in culture; assay type: cell-based
Cercospora arachidicola = test: microbe, parasite or virus in culture; assay type: cell-based; conditions: Mycosphaerella arachidis, read-out: Inhibition rate (%)
[3] = system: Cucumber brown spot (strain SDHGHB060509); test: In vivo micro-screening assay
Text: (§1) 3. In Vivo Micro-Screening Assay

[4] = system: Pepper phytophthora blight (strain NSGP); test: In vivo micro-screening assay; parameters: species or system Phytophthora capsici; conditions: root-irrigation
Text: as §1

Acute skin test = assay type: in vivo, rat; conditions: in vivo, topical
Description: (§2) The toxicological indexes of the compound were tested following the standard GB15670-1995 “Toxicological test methods of pesticides for registration” by Tongji Medical College, Huazhong University of Science and Technology.

rat = test: Acute skin test; assay type: in vivo; conditions: rat
Description: as §2

rabbit's skin = test: Skin stimulation test; assay type: in vivo
Description: as §2

Ames test = assay type: cell-based
Description: as §2

[5] = system: Mice Polychromatic Erythrocytes; test: Micronucleus Test of Mice Polychromatic Erythrocytes; assay type: in vivo
Description: as §2

mice spermatogonial = test: Chromosome aberration test of mice spermatogonial; assay type: in vivo
Description: as §2

[6] = Acute toxicity test on zebra fish; conditions: in vivo
Description: (§3) After acute toxicity and Ames test had been finished, environmental toxicity test was conducted following “Guideline for Environmental Safety Evaluation of Chemical Pesticides” of Agriculture Ministry of China by Shenyang Chemical Research Institute/Supervision and Test Center for Pesticide Safety Evaluation and Quality Control.

quail = test: Acute oral toxicity test on quail; assay type: in vivo
Description: as §3

[7] = system: Cucumber gray mold (F-109); test: In vivo micro-screening assay
Description: (§4) To further study the fungicidal spectrum of the compound of Formula (I), indoor in vivo micro-screening assay were carried out on cucumber gray mold, cucumber scab, cucumber sclerotinia rot, cucumber brown spot, pepper phytophthora blight, and rice sheath blight.
(§5) Medicament to be tested and medicament of control groups were prepared as needed in a sunny morning. Cucumber gray mold, cucumber scab, cucumber brown spot, cucumber sclerotinia rot, and rice sheath blight were medicated by spray, and after air dry, pathogens of cucumber scab and of cucumber brown spot were inoculated through spraying spore suspension respectively, pathogens of cucumber gray mold, of cucumber sclerotinia rot, and of rice sheath blight were inoculated through lawn foliage. Pepper phytophthora blight was medicated and inoculated by root-irrigation. Subsequently, all seedlings were cultured in wet environment.
(§6) After the disease of control groups were serious, spot area, disease index, and the diseased seedling rate were investigated to calculate the efficacy. Cucumber scab, cucumber brown spot, and pepper phytophthora blight were investigated by grading method. The spot extension area of cucumber gray mold and of rice sheath blight was investigated. The diseased seedling rate of cucumber sclerotinia rot was investigated. Disease index=Σ(amount of infected diseased leaves in a grade×relative value of the grade)×100/(total amount of leaves×9); Diseased seedling rate (%)=(total amount of seedlings−amount of diseased seedlings)/total amount of seedlings×100% Prevention and treatment effect (%)=(disease of control group−disease of experiment group)/disease of control group×100%

[8] = system: Cucumber gray mold (Q503001); test: In vivo micro-screening assay
Description: as §4, §5, §6

CO/C=C(/C(=O)OC)c1ccccc1CSc1nc2cc(OC)ccc2s1 [Compound of Formula (I), (E)-methyl 3-methoxy-2-(2-((5-methoxy-benzothiazol-2-ylthio)methyl)phenyl)acrylate]
Efficacy (%) (Sphaerotheca uliginea; 3.125 mg/L, secondary screening): 85.24%
Efficacy (%) (Sphaerotheca uliginea; 6.25 mg/L, secondary screening): 97.22%
Efficacy (%) (Sphaerotheca uliginea; 12.5 mg/L, Table 1): 97.22%
Efficacy (%) (Sphaerotheca uliginea; 12.5 mg/L, secondary screening): 98.50%
Efficacy (%) (Sphaerotheca uliginea; 25 mg/L, Table 1): 100%
Efficacy (%) (Sphaerotheca uliginea; 25 mg/L, secondary screening): 100%
Efficacy (%) (Sphaerotheca uliginea; 50 mg/L, Table 1): 100%
Efficacy (%) (Sphaerotheca uliginea; 50 mg/L, secondary screening): 100%
Efficacy (%) (Sphaerotheca uliginea; 100 mg/L, Table 1): 100%
Efficacy (%) (Sphaerotheca uliginea; 200 mg/L, Table 1): 100%
preventive effect (Sphaerotheca uliginea; powdery mildew): good preventive effect
EC50 (Sphaerotheca uliginea; secondary screening): 0.96 µg/mL
EC90 (Sphaerotheca uliginea; secondary screening): 3.87 µg/mL
inhibition at 0.3 µg/mL (Sclerotinia sclerotirum; 0.3 mg/L): 50.8%
inhibition at 3 µg/mL (Sclerotinia sclerotirum; 3 mg/L): 61%
inhibition at 30 µg/mL (Sclerotinia sclerotirum; 30 mg/L): 80%
inhibition at 0.3 µg/mL ([1]; 0.3 mg/L): 44.1%
inhibition at 3 µg/mL ([1]; 3 mg/L): 49.6%
inhibition at 30 µg/mL ([1]; 30 mg/L): 63.6%
inhibition at 0.3 µg/mL ([2]; 0.3 mg/L): 22.2%
inhibition at 3 µg/mL ([2]; 3 mg/L): 44.4%
inhibition at 30 µg/mL ([2]; 30 mg/L): 68.5%
inhibition at 0.3 µg/mL (Bipolaris sorokiniana; 0.3 mg/L): 18.8%
inhibition at 3 µg/mL (Bipolaris sorokiniana; 3 mg/L): 40.6%
inhibition at 30 µg/mL (Bipolaris sorokiniana; 30 mg/L): 43.8%
in vitro effect (Diaporthe medusae): particularly effective
inhibition at 0.3 µg/mL (Diaporthe medusae; Diaporthe, 0.3 mg/L, read-out: Inhibition rate (%)): 55.3%
inhibition at 3 µg/mL (Diaporthe medusae; Diaporthe, 3 mg/L, read-out: Inhibition rate (%)): 80.1%
inhibition at 30 µg/mL (Diaporthe medusae; Diaporthe, 30 mg/L, read-out: Inhibition rate (%)): 87.2%
inhibition at 0.3 µg/mL (Cercospora arachidicola; 0.3 mg/L): 30.9%
inhibition at 3 µg/mL (Cercospora arachidicola; 3 mg/L): 35.7%
inhibition at 30 µg/mL (Cercospora arachidicola; 30 mg/L): 40.5%
prevention and treatment effect [3]: good prevention and treatment effect
Disease index ([3]; 100 mg/L): 6.11
Efficacy (%) ([3]; 100 mg/L): 85.00%
Disease index ([3]; 500 mg/L): 4.44
Efficacy (%) ([3]; 500 mg/L): 89.10%
Efficacy (%) ([4]; 100 mg/L): 26.22%
Spot area (mm^2) ([4]; 100 mg/L): 25.33 mm^2
Efficacy (%) ([4]; 500 mg/L): 30.09%
Spot area (mm^2) ([4]; 500 mg/L): 24 mm^2
LD50 (Acute skin test; Female rat): > 2000 mg/kg
LD50 (Acute skin test; Male rat): > 2000 mg/kg
Toxicity (acute skin test) (rat): Low toxicity
Skin stimulation (rabbit's skin): No stimulation on rabbit's skin
Ames test (Ames test): Negative
Micronucleus Test of Mice Polychromatic Erythrocytes [5]: Negative
Chromosome aberration test of mice spermatogonial (mice spermatogonial): Negative
LC50 at 24 h ([6]; 24 hrs): 0.069 µg/mL
LC50 at 48 h ([6]; 48 hrs): 0.06 µg/mL
LC50 at 72 h ([6]; 72 hrs): 0.047 µg/mL
LC50 at 96 h ([6]; 96 hrs): 0.043 µg/mL
LC50 (quail): LC50 > 1100 mg/kg.bw
Efficacy (%) ([7]; 100 mg/L): 92.19%
Spot area (mm^2) ([7]; 100 mg/L): 8.03 mm^2
Efficacy (%) ([7]; 500 mg/L): 96.43%
Spot area (mm^2) ([7]; 500 mg/L): 3.67 mm^2
prevention and treatment effect ([7]; cucumber gray mold, strains not distinguished): good prevention and treatment effect
Efficacy (%) ([8]; 100 mg/L): 93.69%
Spot area (mm^2) ([8]; 100 mg/L): 7.78 mm^2
Efficacy (%) ([8]; 500 mg/L): 97.71%
Spot area (mm^2) ([8]; 500 mg/L): 2.82 mm^2
